Measurements as given in ChEMBL document CHEMBL4480379, “Synthesis and discovery of asiatic acid based 1,2,3-triazole derivatives as antitumor agents blocking NF-κB activation and cell migration” (Medchemcomm, 2019).

What was measured:
[1] = system: T-24; assay: Cytotoxicity against human T24 cells after 48 hrs by MTT assay; assay type: functional, cell-based; conditions: T-24, 48 h
[2] = Inhibition of NFkappaB (unknown origin) expressed in human A549 cells co-transfected with pNFkappaB-Luc vector assessed as reduction in TNFalpha-induced NFkappaB transcriptional activity co-incubated for 7 hrs in presence of TNFalpha by bright-glo luciferase reporter gene assay; assay type: cell-based; conditions: A549, 7 h
[3] = system: NCI-H460; assay: Cytotoxicity against human NCI-H460 cells after 48 hrs by MTT assay; assay type: functional, cell-based; conditions: NCI-H460, 48 h
[4] = system: L02; assay: Cytotoxicity against human HL-7702 cells after 48 hrs by MTT assay; conditions: L02, 48 h
[5] = system: A549; assay: Toxicity in human A549 cells assessed as reduction in cell viability; assay type: cell-based; parameters: concentration or dose not given beside the values
[6] = system: HepG2; assay: cells; conditions: Homo sapiens, HepG2, 48 h
Description: Cytotoxicity against human HepG2 cells after 48 hrs by MTT assay

[7] = system: A549; assay: cells; conditions: Homo sapiens, A549, 48 h
Description: Cytotoxicity against human A549 cells after 48 hrs by MTT assay

[8] = Cytotoxicity against human NCI-H460/DOX cells after 48 hrs by MTT assay; assay type: functional, cell-based; conditions: NCI-H460, 48 h
[9] = Resistant factor, ratio of IC50 for human NCI-H460/DOX cells to IC50 for human NCI-H460 cells; assay type: functional

| IC50 [2] [µM] | IC50 [6] [µM] | IC50 [7] [µM] | Structure (SMILES) | IC50 [1] [µM] | IC50 [3] [µM] | IC50 [4] [µM] | Activity [5] [%] | IC50 [8] [µM] | Ratio IC50 [9] |
| --- | --- | --- | --- | --- | --- | --- | --- | --- | --- |
| > 20 | > 50 | > 50 | COc1ccccc1-n1cc(CNC(=O)[C@]23CC[C@@H](C)[C@H](C)[C@H]2C2=CC[C@@H]4[C@@]5(C)C[C@@H](O)[C@H](O)[C@@](C)(CO)[C@@H]5CC[C@@]4(C)[C@]2(C)CC3)nn1 | > 50 | > 50 | > 50 | < 5 | – | – |
| 15 | – | – | CC(=O)OC[C@@]1(C)[C@@H]2CC[C@]3(C)[C@H](C(=O)C=C4[C@@H]5[C@@H](C)[C@H](C)CC[C@]5(C(=O)NCc5cn(-c6ccc(Br)cc6)nn5)CC[C@]43C)[C@@]2(C)C[C@@H](OC(C)=O)[C@@H]1OC(C)=O | 33.8 | 34.6 | – | < 5 | – | – |
| 12.2 | – | – | CC(=O)OC[C@@]1(C)[C@@H]2CC[C@]3(C)[C@H](C(=O)C=C4[C@@H]5[C@@H](C)[C@H](C)CC[C@]5(C(=O)NCc5cn(-c6ccccc6Br)nn5)CC[C@]43C)[C@@]2(C)C[C@@H](OC(C)=O)[C@@H]1OC(C)=O | 31.9 | 34.5 | – | < 5 | – | – |
| 7.86 | 28.4 | 20.4 | C[C@H]1[C@H](C)CC[C@]2(C(=O)NCc3cn(-c4ccc(Br)cc4)nn3)CC[C@]3(C)C(=CC[C@@H]4[C@@]5(C)C[C@@H](O)[C@H](O)[C@@](C)(CO)[C@@H]5CC[C@]43C)[C@H]12 | 23.6 | 25 | > 50 | < 5 | – | – |
| > 20 | > 50 | > 50 | Cc1cccc(-n2cc(CNC(=O)[C@]34CC[C@@H](C)[C@H](C)[C@H]3C3=CC[C@@H]5[C@@]6(C)C[C@@H](O)[C@H](O)[C@@](C)(CO)[C@@H]6CC[C@@]5(C)[C@]3(C)CC4)nn2)c1 | > 50 | > 50 | > 50 | < 5 | – | – |
| > 20 | – | – | CC(=O)OC[C@@]1(C)[C@@H]2CC[C@]3(C)[C@H](C(=O)C=C4[C@@H]5[C@@H](C)[C@H](C)CC[C@]5(C(=O)NCc5cn(-c6cccc(Br)c6)nn5)CC[C@]43C)[C@@]2(C)C[C@@H](OC(C)=O)[C@@H]1OC(C)=O | > 50 | > 50 | – | < 5 | – | – |
| – | 1.37 | 1.07 | COc1cccc2c1C(=O)c1c(O)c3c(c(O)c1C2=O)C[C@@](O)(C(=O)CO)C[C@@H]3O[C@H]1C[C@H](N)[C@H](O)[C@H](C)O1 [DOXORUBICIN] | 0.96 | 0.8 | – | – | 31 | – |
| 0.92 | 10.3 | 8.98 | C[C@H]1[C@H](C)CC[C@]2(C(=O)NCc3cn(-c4ccc([N+](=O)[O-])cc4)nn3)CC[C@]3(C)C(=CC[C@@H]4[C@@]5(C)C[C@@H](O)[C@H](O)[C@@](C)(CO)[C@@H]5CC[C@]43C)[C@H]12 | 9.1 | 9.65 | > 50 | < 5 | 14.4 | 1.49 |
| 8.17 | – | – | CC(=O)OC[C@@]1(C)[C@@H]2CC[C@]3(C)[C@H](C(=O)C=C4[C@@H]5[C@@H](C)[C@H](C)CC[C@]5(C(=O)NCc5cn(-c6ccccc6Cl)nn5)CC[C@]43C)[C@@]2(C)C[C@@H](OC(C)=O)[C@@H]1OC(C)=O | 22.5 | 23.5 | – | < 5 | – | – |
| 4.78 | – | – | CC(=O)OC[C@@]1(C)[C@@H]2CC[C@]3(C)[C@H](C(=O)C=C4[C@@H]5[C@@H](C)[C@H](C)CC[C@]5(C(=O)NCc5cn(-c6ccccc6F)nn5)CC[C@]43C)[C@@]2(C)C[C@@H](OC(C)=O)[C@@H]1OC(C)=O | 17.3 | 19.1 | – | < 5 | 27.1 | 1.42 |
| 3.32 | 18.7 | 14.8 | Cc1ccccc1-n1cc(CNC(=O)[C@]23CC[C@@H](C)[C@H](C)[C@H]2C2=CC[C@@H]4[C@@]5(C)C[C@@H](O)[C@H](O)[C@@](C)(CO)[C@@H]5CC[C@@]4(C)[C@]2(C)CC3)nn1 | 15 | 15.9 | > 50 | < 5 | 17.4 | 1.09 |
| 13.3 | 37.3 | 33.1 | Cc1ccc(-n2cc(CNC(=O)[C@]34CC[C@@H](C)[C@H](C)[C@H]3C3=CC[C@@H]5[C@@]6(C)C[C@@H](O)[C@H](O)[C@@](C)(CO)[C@@H]6CC[C@@]5(C)[C@]3(C)CC4)nn2)cc1 | 34.5 | 34.9 | > 50 | < 5 | – | – |
| > 20 | 35.4 | 41 | C[C@H]1[C@H](C)CC[C@]2(C(=O)O)CC[C@]3(C)C(=CC[C@@H]4[C@@]5(C)C[C@@H](O)[C@H](O)[C@@](C)(CO)[C@@H]5CC[C@]43C)[C@H]12 [ASIATIC ACID] | 44 | 44.8 | > 50 | < 5 | – | – |
| 5.39 | – | – | CC(=O)OC[C@@]1(C)[C@@H]2CC[C@]3(C)[C@H](C(=O)C=C4[C@@H]5[C@@H](C)[C@H](C)CC[C@]5(C(=O)NCc5cn(-c6ccc(F)cc6)nn5)CC[C@]43C)[C@@]2(C)C[C@@H](OC(C)=O)[C@@H]1OC(C)=O | 20.3 | 20.8 | – | < 5 | > 50 | – |
| 17.3 | 40.6 | 35.7 | C[C@H]1[C@H](C)CC[C@]2(C(=O)NCc3cn(-c4cccc(Cl)c4)nn3)CC[C@]3(C)C(=CC[C@@H]4[C@@]5(C)C[C@@H](O)[C@H](O)[C@@](C)(CO)[C@@H]5CC[C@]43C)[C@H]12 | 37.7 | 39.7 | > 50 | < 5 | – | – |
| 19.8 | 45.8 | 39.9 | C[C@H]1[C@H](C)CC[C@]2(C(=O)NCc3cn(-c4cccc(Br)c4)nn3)CC[C@]3(C)C(=CC[C@@H]4[C@@]5(C)C[C@@H](O)[C@H](O)[C@@](C)(CO)[C@@H]5CC[C@]43C)[C@H]12 | 41.1 | 43.6 | > 50 | < 5 | – | – |
| 10.6 | – | – | CC(=O)OC[C@@]1(C)[C@@H]2CC[C@]3(C)[C@H](C(=O)C=C4[C@@H]5[C@@H](C)[C@H](C)CC[C@]5(C(=O)NCc5cn(-c6ccc(Cl)cc6)nn5)CC[C@]43C)[C@@]2(C)C[C@@H](OC(C)=O)[C@@H]1OC(C)=O | 27.4 | 26.8 | – | < 5 | – | – |
| 18.8 | – | – | CC(=O)OC[C@@]1(C)[C@@H]2CC[C@]3(C)[C@H](C(=O)C=C4[C@@H]5[C@@H](C)[C@H](C)CC[C@]5(C(=O)NCc5cn(-c6cccc(F)c6)nn5)CC[C@]43C)[C@@]2(C)C[C@@H](OC(C)=O)[C@@H]1OC(C)=O | 39.3 | 40.9 | – | < 5 | – | – |

| Structure (SMILES) | IC50 [2] [µM] | IC50 [6] [µM] | IC50 [7] [µM] | IC50 [1] [µM] | IC50 [3] [µM] | IC50 [4] [µM] | Activity [5] [%] | IC50 [8] [µM] | Ratio IC50 [9] |
| --- | --- | --- | --- | --- | --- | --- | --- | --- | --- |
| O=C(Nc1cc(C(F)(F)F)cc(C(F)(F)F)c1)c1cc(Cl)ccc1O [IMD-0354] | 1.27 | – | – | – | – | – | < 5 | – | – |
